# Results reported in PMC6268373, “Systematic Study of the Physicochemical Properties of a Homologous Series of Aminobisphosphonates” (Molecules, 2012).
# Like-named read-outs stand apart in the source and are kept apart here.
# What was measured:
# [1] = Aqueous solubility of saturated solution at 21 °C (phosphorus determination by molybdenum blue spectrophotometry)
# [2] = Thermal analysis (TG/DTA and TGA 7); type: physicochemical; conditions: for Td: 5 °C/min; for Temp. range of 1st cleavage: lower limit taken at 0.5 wt-%
# [3] = pKa determination with Sirius instrument (PCA200)
# [4] = Protonation constants by (traditional) potentiometric titration (TPT), SUPERQUAD; conditions: 0.1 M NaNO3, 25 °C; for pKa: aqueous 0.1 M NaNO3, log K, TPT
# Excerpt: Results were obtained from […] as overall stability constants (log β values); following the chosen zero level H2L^2−. This zero level H2L^2− was chosen in the calculations to avoid any accumulation of errors of protonation constants at different pH ranges. The log β results for reactions (4) and (5) obtained in the final refinements are listed in Table S3 (see Supporting Information) with error limits (±3σ), number of points/number of titrations and χ^2/Σ statistics.
# The details of the experiments using (traditional) potentiometric titration are presented in the Supporting Information. The results of the determination by Sirius instrument are shown in the Supporting Information. Potentiometric titrations of the compounds were performed with the PCA200 apparatus (Sirius Analytical Instruments Ltd, Forest Row, East Sussex, UK).
# Table S2. The effect of pH on aqueous solubility (mg/L) of aminoalkylbis(phosphonates) […]
# Solubility (g/L) of Compound
# Determination of the Protonation Constants Using (traditional) Potentiometric Titration. Reagents:
# Aqueous 0.1 M NaOH was prepared from Titrisol ampoules (Merck) and 0.1 M HNO3 from Convol ampoules (BDH). The background solution was prepared by dissolving NaNO3 in deionised water.
# The NaNO3 and NaCl used in reference electrode were p.a. grade (Merck). The water used in the dilutions and titration solutions was purified with Milli-RO and Milli-Q water purification systems […]
# Potentiometric measurements: The protonation equilibria was studied in aqueous 0.1 M NaNO3 at 25.0 ± 0.1 °C through a series of potentiometric EMF titrations carried out with a Schott-Geräte GmbH […]
# The cell arrangement for the measurement of the hydrogen ion concentration [H+] was as follows:
# −RE […] equilibrium solution […] GE+ (1) where GE denotes a glass electrode (Schott N2680), and RE is Hg, Hg2Cl2 […] 0.01 M NaCl, 0.09 M NaNO3. Expression (2) is valid assuming that the activity coefficients are constant.
# The cell parameter E0 and the liquid junction coefficient jH, valid in acidic solutions, were determined for each titration by adding a known amount of HNO3 to the background electrolyte. The value of the liquid junction coefficient jOH, valid in basic solutions, was determined periodically. Only stable EMF readings were used in the calculations.
# During the measurements of the protonation equilibria, aqueous 0.1 M NaOH or 0.1 M HNO3 was […]
# Four to eight independent titrations were carried out for each ligand. The number of data points used in […]
# Data treatment: Protonation and deprotonation of the ligands were controlled by addition of HNO3 or NaOH. The curves of ZH versus pH were drawn to visualize the experimental data sets. ZH describes the average number of H+ ions added or liberated per mole of ligand and is given by the relationship […]
# where CH denotes the total concentration of protons calculated over the zero level H2L2−.
# In the evaluation of the equilibrium constants, the following two-component equilibria were utilized:
# H2L2− ⇋ H2-xL(2+x)– + xH+ , x = 1–2; β–x (4) xH+ + H2L2− ⇋ Hx+2Lx–2, x = 1–3; βx (5)
# Mathematical analysis of the systems involves a search for protonation models and equilibrium constants that best describe the experimental data. The calculations were carried out with the computer […]
# 1200). The sample standard deviation Σ and the χ2 statistics used as criteria in the selection of the models were those provided by the program. As a means to improve the confidence level, the error limits for log β values determined in this study are reported as three times the standard deviation estimated by the program.
# Figure S2. ZH vs. pH for protonation of compounds (a) 1; (b) 2; (c) 3; (d) 4 and (e) 5.
# [5] = cited from earlier work; for logK, pKa3: H2L2− + H+ ⇋ H3L−; for logK, pKa2: H3L− + H+ ⇋ H4L; for logK, pKa1: H4L + H+ ⇋ H5L+; for logK, pKa4: HL3− + H+ ⇋ H2L2−; for logK, pKa5: L4− + H+ ⇋ HL3−
# [6] = overall protonation, zero level H2L2−
structure (smiles),measurement,setting,value
"NCCC(O)(P(=O)(O)O)P(=O)(O)O [Compound 1, (3-Amino-1-hydroxypropylidene)bisphosphonic acid]",solubility at 30 min,"[1]; Milli-Q water, unbuffered, 21 °C, water, thermodynamic from solid",10.9 mg/mL
same,pH of saturated solution,"[1]; saturated aqueous solution, 21 °C, agitation time 30 min",4.62
same,water solubility (in words),[1]; water,almost freely soluble
same,Onset temperature of first cleavage,"[2]; TG/DTA, higher crucible",149 °C
same,Td,"[2]; TG/DTA, higher crucible, air",149 °C
same,Temp. range of 1st cleavage,"[2]; TG/DTA, higher crucible",134–199 °C
same,Onset temperature of first cleavage,"[2]; TGA 7, shallow crucible",155 °C
same,Td,"[2]; TGA 7, shallow crucible, air",155 °C
same,Temp. range of 1st cleavage,"[2]; TGA 7, shallow crucible",102–203 °C
same,Td (decomposition onset),"[2]; average from both instruments, air, heating rate 5 °C/min",152 °C
same,temperature of first decomposition step (cleavage of amino group / degradation),"[2]; thermogravimetry, air",100–200 °C
same,pKa 2 (Sirius),[3],2.32
same,pKa 3 (Sirius),[3],5.93
same,pKa 4 (Sirius),[3],10.05
same,pKa 5 (Sirius),[3],12.54
same,pKa,"[4]; pKa1 (H4L + H+ ⇋ H5L+), approximate values",1.06
same,pKa,[4]; pKa2 (H3L− + H+ ⇋ H4L),1.7
same,pKa,[4]; pKa3 (H2L2− + H+ ⇋ H3L−),5.9
same,pKa,[4]; pKa4 (HL3− + H+ ⇋ H2L2−),10
same,pKa,[4]; pKa5 (L4− + H+ ⇋ HL3−),12.9
same,"logβx ± 3σ, x = 1 (H3L−)",[4]; [6],5.90 ± 0.02
same,"logβx ± 3σ, x = 2 (H4L)",[4]; [6],7.60 ± 0.05
same,"logβx ± 3σ, x = 3 (H5L+)",[4]; [6],8.66 ± 0.30
same,"logβx ± 3σ, x = −1 (HL3−)",[4]; [6],−10.04 ± 0.03
same,"logβx ± 3σ, x = −2 (L4−)",[4]; [6],−22.90 ± 0.23
same,"logK, pKa3",[5]; first Ref.18 column,6.01
same,"logK, pKa3",[5]; ref 4,5.86
same,"logK, pKa3",[5]; ref 13,5.83
same,"logK, pKa3",[5]; ref 14,5.85
same,"logK, pKa3",[5]; ref 15,6.01
same,"logK, pKa3",[5]; ref 17,6.04
same,"logK, pKa3",[5]; second Ref.18 column,5.39
same,"logK, pKa2",[5]; ref 4,2.04
same,"logK, pKa2",[5]; ref 13,2.55
same,"logK, pKa2",[5]; ref 14,1.80
same,"logK, pKa2",[5]; ref 15,2.56
same,"logK, pKa2",[5]; ref 17,1.93
same,"logK, pKa1",[5]; ref 14,<1.2
same,"logK, pKa1",[5]; ref 17,1.24
same,"logK, pKa4",[5]; first Ref.18 column,9.97
same,"logK, pKa4",[5]; ref 4,9.90
same,"logK, pKa4",[5]; ref 13,9.9
same,"logK, pKa4",[5]; ref 14,10.30
same,"logK, pKa4",[5]; ref 15,9.80
same,"logK, pKa4",[5]; ref 17,10.18
same,"logK, pKa4",[5]; second Ref.18 column,9.46
same,"logK, pKa5",[5]; first Ref.18 column,10.74
same,"logK, pKa5",[5]; ref 4,11.02
same,"logK, pKa5",[5]; ref 13,10.8
same,"logK, pKa5",[5]; ref 14,13.06
same,"logK, pKa5",[5]; ref 15,10.95
same,"logK, pKa5",[5]; ref 17,12.14
same,"logK, pKa5",[5]; second Ref.18 column,10.40
